# Reference: US11453647B2, “Benzimidazole derivatives as adenosine receptor antagonists” (Merck Patent GmbH, priority 2017, dated 2022)
# How the values were obtained:
# Format in all cases: cell-based
# [1] = target: T1, A2B receptors (Homo sapiens, UniProt P29275); experiment: functional cAMP (HTRF) assay, recombinant HEK293 cells expressing human A2B receptor, agonist NECA; set-up: expressed in transfected cells; host or cells: HEK293
# T1 sequence (P29275 1-332): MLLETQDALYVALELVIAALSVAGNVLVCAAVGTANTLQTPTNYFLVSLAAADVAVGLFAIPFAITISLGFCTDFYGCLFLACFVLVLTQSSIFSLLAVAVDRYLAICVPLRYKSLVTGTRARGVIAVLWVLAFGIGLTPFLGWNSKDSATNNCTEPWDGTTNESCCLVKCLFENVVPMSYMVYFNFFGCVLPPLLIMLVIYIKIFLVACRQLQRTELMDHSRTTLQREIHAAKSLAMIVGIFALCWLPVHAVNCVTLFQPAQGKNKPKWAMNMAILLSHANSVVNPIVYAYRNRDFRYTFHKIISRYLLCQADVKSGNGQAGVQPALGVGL
# [2] = target: T2, human A1 receptor (Homo sapiens, UniProt P30542); experiment: functional cAMP (HTRF) assay, recombinant CHO cells expressing human A1 receptor, forskolin, agonist CPA
# T2 construct: expressed in transfected cells; host or cells: CHO
# T2 sequence (P30542 1-326): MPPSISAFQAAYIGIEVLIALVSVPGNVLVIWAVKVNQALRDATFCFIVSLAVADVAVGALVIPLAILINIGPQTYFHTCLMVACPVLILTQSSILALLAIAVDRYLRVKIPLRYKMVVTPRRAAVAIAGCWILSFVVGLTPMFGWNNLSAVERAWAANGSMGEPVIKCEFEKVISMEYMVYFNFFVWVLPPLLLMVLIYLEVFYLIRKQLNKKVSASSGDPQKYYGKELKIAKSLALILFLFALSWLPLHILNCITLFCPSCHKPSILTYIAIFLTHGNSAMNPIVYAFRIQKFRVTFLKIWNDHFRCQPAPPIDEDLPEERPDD
# Procedure: (§1) The functional activities of human A2A, A2B, A1 and A3 receptors were determined by quantification of cAMP, being the second messenger for adenosine receptors.
# (§2) For human A1 and A3 receptors, recombinant CHO cells, expressing either A1 or A3-receptor, were used. As both receptors couple to Gi proteins, the assay protocol was adapted:
# (§3) Cells were seeded into 384-well plates, forskolin, test compounds and agonists (CPA for A1- and IB-MECA for A3-receptor) were added. After 30 min incubation, HTRF reagents (cAMP dynamic 2, Cis Bio) were added and the cellular cAMP levels were determined using the ENVISION (Perkin Elmer) plate reader. Obtained raw data were normalized against the inhibitor control and the neural control (DMSO) and the normalized data were fitted using GeneData software.
# [3] = target: T3, human A2A receptor (Homo sapiens, UniProt P29274); experiment: functional cAMP (HTRF) assay, recombinant HEK293 cells expressing human A2A receptor, agonist NECA
# T3 construct: expressed in transfected cells; host or cells: HEK293
# T3 sequence (P29274 whole entry): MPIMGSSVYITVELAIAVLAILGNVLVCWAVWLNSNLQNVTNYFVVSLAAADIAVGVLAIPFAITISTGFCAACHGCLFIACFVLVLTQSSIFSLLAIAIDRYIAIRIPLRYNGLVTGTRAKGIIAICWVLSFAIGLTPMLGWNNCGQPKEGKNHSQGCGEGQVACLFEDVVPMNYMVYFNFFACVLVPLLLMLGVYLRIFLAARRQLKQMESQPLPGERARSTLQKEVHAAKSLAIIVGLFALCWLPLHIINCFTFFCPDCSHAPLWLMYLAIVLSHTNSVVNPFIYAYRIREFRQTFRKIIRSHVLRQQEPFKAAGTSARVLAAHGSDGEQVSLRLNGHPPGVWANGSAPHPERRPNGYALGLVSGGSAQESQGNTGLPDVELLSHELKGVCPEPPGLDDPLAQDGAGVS
# [4] = target: T4, human A3 receptor (Homo sapiens, UniProt P0DMS8); experiment: functional cAMP (HTRF) assay, recombinant CHO cells expressing human A3 receptor, forskolin, agonist IB-MECA
# T4 construct: expressed in transfected cells; host or cells: CHO
# T4 sequence (P0DMS8 1-318): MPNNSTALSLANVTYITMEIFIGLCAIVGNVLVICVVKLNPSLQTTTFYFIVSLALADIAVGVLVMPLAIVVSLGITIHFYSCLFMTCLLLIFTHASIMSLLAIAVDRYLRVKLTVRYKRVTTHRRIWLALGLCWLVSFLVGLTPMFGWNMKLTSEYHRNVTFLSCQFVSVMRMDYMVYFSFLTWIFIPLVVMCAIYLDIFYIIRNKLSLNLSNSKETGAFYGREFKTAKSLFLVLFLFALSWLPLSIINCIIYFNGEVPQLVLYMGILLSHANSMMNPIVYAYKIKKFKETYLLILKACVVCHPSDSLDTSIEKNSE
# Procedure: as §1, §2, §3
IC50 [1],IC50 [2],IC50 [3],IC50 [4],SMILES
< 0.1 µM,> 1 µM,< 0.01 µM,,"COc1ccc(-c2ccccc2)c2nc(NC(=O)c3ccc(CCl)cc3)[nH]c12 [compound 10, 4-Chloromethyl-N-(7-methoxy-4-phenyl-1H-benzoimidazol-2-yl)-benzamide]"
> 1 µM,> 1 µM,< 0.01 µM,,"COc1ccc(C2CCOCC2)c2nc(NC(=O)c3ccnc(N4CCC(C)(O)CC4)c3)[nH]c12 [compound 118, 2-(4-hydroxy-4-methylpiperidin-1-yl)-N-[7-methoxy-4-(oxan-4-yl)-1H-1,3-benzodiazol-2-yl]pyridine-4-carboxamide]"
< 0.01 µM,< 1 µM,< 0.01 µM,,"COc1ccc(-c2cnn(C)c2)c2nc(NC(=O)c3cncs3)[nH]c12 [compound 219, N-[7-methoxy-4-(1-methyl-1H-pyrazol-4-yl)-1H-1,3-benzodiazol-2-yl]-1,3-thiazole-5-carboxamide]"
< 0.1 µM,> 1 µM,< 0.01 µM,,"COc1ccc(C2CCOCC2)c2nc(NC(=O)c3cnc(C)s3)[nH]c12 [compound 227, N-[7-methoxy-4-(oxan-4-yl)-1H-1,3-benzodiazol-2-yl]-2-methyl-1,3-thiazole-5-carboxamide]"
,> 1 µM,< 0.1 µM,,"COc1ccc(C2CCOCC2)c2nc(NC(=O)NCc3nccs3)[nH]c12 [compound 228, 3-[7-methoxy-4-(oxan-4-yl)-1H-1,3-benzodiazol-2-yl]-1-[(1,3-thiazol-2-yl)methyl]urea]"
< 0.01 µM,< 1 µM,< 0.01 µM,,"COc1ccc(-c2ccccc2F)c2nc(NC(=O)c3cnn(C)c3)[nH]c12 [compound 243, N-[4-(2-fluorophenyl)-7-methoxy-1H-1,3-benzodiazol-2-yl]-1-methyl-1H-pyrazole-4-carboxamide]"
< 0.01 µM,< 1 µM,< 0.01 µM,,"COc1ccc(-c2ccccc2)c2nc(NC(=O)c3cncn3C)[nH]c12 [compound 254, N-(7-methoxy-4-phenyl-1H-1,3-benzodiazol-2-yl)-1-methyl-1H-imidazole-5-carboxamide]"
< 0.01 µM,< 1 µM,< 0.01 µM,,"COc1ccc(-c2ccccc2)c2nc(NC(=O)c3cncs3)[nH]c12 [compound 256, N-(7-methoxy-4-phenyl-1H-1,3-benzodiazol-2-yl)-1,3-thiazole-5-carboxamide]"
< 0.01 µM,< 1 µM,< 0.01 µM,,"COc1ccc(-c2ccccc2)c2nc(NC(=O)c3cnc(C)s3)[nH]c12 [compound 257, N-(7-methoxy-4-phenyl-1H-1,3-benzodiazol-2-yl)-2-methyl-1,3-thiazole-5-carboxamide]"
< 0.01 µM,< 1 µM,< 0.01 µM,,"COc1ccc(-c2ccccc2)c2nc(NC(=O)c3cnc(N)s3)[nH]c12 [compound 258, 2-amino-N-(7-methoxy-4-phenyl-1H-1,3-benzodiazol-2-yl)-1,3-thiazole-5-carboxamide]"
< 0.01 µM,< 1 µM,< 0.01 µM,,"COc1ccc(-c2cccnc2)c2nc(NC(=O)c3cnn(C)c3)[nH]c12 [compound 260, N-[7-methoxy-4-(pyridin-3-yl)-1H-1,3-benzodiazol-2-yl]-1-methyl-1H-pyrazole-4-carboxamide]"
< 0.1 µM,> 1 µM,< 0.1 µM,,"COc1ccc(-c2ccncc2)c2[nH]c(NC(=O)c3c[nH]cn3)nc12 [compound 266, N-[4-methoxy-7-(pyridin-4-yl)-1H-1,3-benzodiazol-2-yl]-1H-imidazole-4-carboxamide]"
< 0.1 µM,,< 0.1 µM,> 1 µM,"COc1cc(F)c(C2CCOCC2)c2nc(NC(=O)c3ccc(C(=O)N(C)C)cc3)[nH]c12 [compound 277, N4-[5-fluoro-7-methoxy-4-(oxan-4-yl)-1H-1,3-benzodiazol-2-yl]-N1,N1-dimethylbenzene-1,4-dicarboxamide]"
< 0.1 µM,,< 0.1 µM,< 1 µM,"COc1ccc(-c2ccccc2)c2nc(NC(=O)c3cnc4cccnn34)[nH]c12 [compound 288, N-(7-methoxy-4-phenyl-1H-1,3-benzodiazol-2-yl)imidazo[1,2-b]pyridazine-3-carboxamide]"
< 0.01 µM,,< 0.1 µM,< 1 µM,"COc1ccc(-c2ccccc2)c2[nH]c(NC(=O)c3ccc(C(=O)N4CCN(C)CC4)cc3)nc12 [compound 294, N-(4-methoxy-7-phenyl-1H-1,3-benzodiazol-2-yl)-4-(4-methylpiperazine-1-carbonyl)benzamide]"
< 0.1 µM,,< 0.1 µM,< 1 µM,"COCCN(C)C(=O)c1ccc(C(=O)Nc2nc3c(OC)ccc(-c4ccccc4)c3[nH]2)cc1 [compound 295, N4-(4-methoxy-7-phenyl-1H-1,3-benzodiazol-2-yl)-N1-(2-methoxyethyl)-N1-methylbenzene-1,4-dicarboxamide]"
< 0.01 µM,,< 0.1 µM,< 1 µM,"COc1ccc(-c2ccccc2)c2[nH]c(NC(=O)c3ccc(C(=O)N(C)CCN(C)C)cc3)nc12 [compound 296, N1-[2-(dimethylamino)ethyl]-N4-(4-methoxy-7-phenyl-1H-1,3-benzodiazo1-2-yl)-N1-methylbenzene-1,4-dicarboxamide]"
< 0.1 µM,,< 0.1 µM,< 1 µM,"CCCN(C)C(=O)c1ccc(C(=O)Nc2nc3c(OC)ccc(-c4ccccc4)c3[nH]2)cc1 [compound 297, N4-(4-methoxy-7-phenyl-1H-1,3-benzodiazol-2-yl)-N1-methyl-N1-propylbenzene-1,4-dicarboxamide]"
< 0.01 µM,,< 0.1 µM,< 1 µM,"COc1ccc(-c2ccccc2)c2[nH]c(NC(=O)c3ccc(C(=O)N4CCOCC4)cc3)nc12 [compound 298, N-(4-methoxy-7-phenyl-1H-1,3-benzodiazol-2-yl)-4-(morpholine-4-carbonyl)benzamide]"
< 0.1 µM,,< 0.1 µM,< 1 µM,"COCCn1cc(C(=O)Nc2nc3c(-c4cccc5cc[nH]c45)ccc(OC)c3[nH]2)cn1 [compound 304, N-[4-(1H-indol-7-yl)-7-methoxy-1H-1,3-benzodiazol-2-yl]-1-(2-methoxyethyl)-1H-pyrazole-4-carboxamide]"
< 0.1 µM,,< 0.1 µM,> 1 µM,"COc1ccc(-c2cccc3cc[nH]c23)c2nc(NC(=O)N3CCC(C)(O)CC3)[nH]c12 [compound 305, 4-hydroxy-N-[4-(1H-indol-7-yl)-7-methoxy-1H-1,3-benzodiazol-2-yl]-4-methylpiperidine-1-carboxamide]"
< 0.1 µM,,< 0.1 µM,> 1 µM,"COc1ccc(-c2ccccc2)c2nc(NC(=O)N3CCC4(CCOCC4)C3)[nH]c12 [compound 310, N-(7-methoxy-4-phenyl-1H-1,3-benzodiazol-2-yl)-8-oxa-2-azaspiro[4.5]decane-2-carboxamide]"
< 0.01 µM,,< 0.1 µM,< 1 µM,"COc1ccc(-c2ccccc2)c2nc(NC(=O)c3ccc(CN4CCCC4=O)cc3)[nH]c12 [compound 311, N-(7-methoxy-4-phenyl-1H-1,3-benzodiazol-2-yl)-4-[(2-oxopyrrolidin-1-yl)methyl]benzamide]"
> 1 µM,,< 0.01 µM,> 1 µM,"COc1ccc(N2CCCOCC2)c2nc(NC(=O)c3ccc(C(=O)N(C)C)cc3)[nH]c12 [compound 313, N4-[7-methoxy-4-(1,4-oxazepan-4-yl)-1H-1,3-benzodiazol-2-yl]-N1,N1-dimethylbenzene-1,4-dicarboxamide]"

SMILES,IC50 [1],IC50 [2],IC50 [3],IC50 [4]
"CCCNC(=O)c1ccc(C(=O)Nc2nc3c(OC)ccc(-c4ccccc4)c3[nH]2)cc1 [compound 293, N1-(4-methoxy-7-phenyl-1H-1,3-benzodiazol-2-yl)-N4-propylbenzene-1,4-dicarboxamide]",< 0.1 µM,,< 0.1 µM,< 1 µM
